Reference: publication PMC8973283, “First-in-Humans Evaluation of a PD-L1–Binding Peptide PET Radiotracer in Non–Small Cell Lung Cancer Patients” (Journal of Nuclear Medicine, 2022)

What was measured:
[1] = tested on: NSCLC lesions; conditions: human, in vivo; cited from earlier work
[2] = tested on: NSCLC lesions; conditions: human, in vivo
Protocol: Patients were injected intravenously with ^68Ga-NOTA-WL12 (1.9–3.7 MBq/kg). To determine the optimal peptide dose required to obtain high-contrast images, an escalated nonradiolabeled WL12 mass dose was coadministered with the imaging agent. The first 2 patients received 0 μg, the next 3 received 5 ug, then 60 ug, and the final group of 3 received 120 μg. […] The first patient underwent a dynamic scan at 6 time points in 1 h. The remaining 8 patients underwent PET/CT at 1 h after injection, and 6 of those were also scanned at 2 h after injection (2 patients were unable to tolerate the full 2-h examination). […] Images were reconstructed with ordered-subset expectation maximization. […] CT data were used to correct the PET images for attenuation. Vital signs, laboratory studies, and electrocardiograms were obtained before injection, during the screening period, and 2 d after PET/CT.
Images were analyzed by 2 experienced nuclear medicine physicians. […] To compare the uptake differences between the liver, spleen, small intestine (SI), and kidney among patients coadministered with different doses of WL12, multisite measurement was applied, and the uptake was calculated as an average of the number of patients corresponding to different dose administrations separately (Supplemental Fig. 3). […]

[3] = molecular target: PD-L1 (Homo sapiens, UniProt Q9NZQ7); assay: First-in-human PET/CT in advanced NSCLC patients: tumor uptake and biodistribution
Protocol: (§1) Patients were injected intravenously with ^68Ga-NOTA-WL12 (1.9–3.7 MBq/kg). To determine the optimal peptide dose required to obtain high-contrast images, an escalated nonradiolabeled WL12 mass dose was coadministered with the imaging agent. The first 2 patients received 0 μg, the next 3 received 5 ug, then 60 ug, and the final group of 3 received 120 μg. […] The first patient underwent a dynamic scan at 6 time points in 1 h. The remaining 8 patients underwent PET/CT at 1 h after injection, and 6 of those were also scanned at 2 h after injection (2 patients were unable to tolerate the full 2-h examination). […] Images were reconstructed with ordered-subset expectation maximization. CT reconstruction used a standard method with a 512 × 512 matrix and a layer thickness of 3–5 mm. CT data were used to correct the PET images for attenuation.
(§2) Images were analyzed by 2 experienced nuclear medicine physicians. The uptake parameters of major organs, tissues, and lesions were obtained to determine the organ biodistribution. SUVlean (SUL) was obtained by standardizing SUV to the body mass, which is less dependent on body habitus ([24]). […] Accordingly, we used SULmean and percentage of injected activity to describe radiopharmaceutical uptake in normal organs. To compare the uptake differences between the liver, spleen, small intestine (SI), and kidney among patients coadministered with different doses of WL12, multisite measurement was applied, and the uptake was calculated as an average of the number of patients corresponding to different dose administrations separately (Supplemental Fig. 3). To analyze normal organ uptake at different time points, 6 patients with 1- and 2-h imaging were involved. The maximum, peak, and mean values of SUV and SUL in biopsied lesions were obtained and used to correlate with PD-L1 TPS. Tumor uptake of ^68Ga-NOTA-WL12 higher than that of blood pool (BP) was considered positive.

[4] = as above; conditions: human, iv
Protocol: as §1, §2

[5] = in vivo; conditions: NOD/SCID, mouse, iv, 7.4 MBq (~0.17 ug), total radioactivity
[6] = tested on: CHO tumors; assay: Small-animal PET of NOD/SCID mice bearing negative control CHO tumors; type: in vivo
[7] = Clinical safety monitoring after PET/CT; type: in vivo, human
Protocol: Patients were injected intravenously with ^68Ga-NOTA-WL12 (1.9–3.7 MBq/kg). To determine the optimal peptide dose required to obtain high-contrast images, an escalated nonradiolabeled WL12 mass dose was coadministered with the imaging agent. The first 2 patients received 0 μg, the next 3 received 5 ug, then 60 ug, and the final group […] received 120 μg. […] The first patient underwent a dynamic scan at 6 time points in 1 h. The remaining 8 patients underwent PET/CT at 1 h after injection, and 6 of those were also scanned at 2 h after injection (2 patients were unable to tolerate the full 2-h examination). […] Images were reconstructed with ordered-subset expectation maximization. CT reconstruction used a standard method with a 512 × 512 matrix and a layer thickness of 3–5 mm. CT data were used to correct the PET images for attenuation. Vital signs, laboratory studies, and electrocardiograms were obtained before injection, during the screening period, and 2 d after PET/CT.

[8] = Radiation dosimetry in patients (OLINDA/EXM); type: in vivo, human; conditions: administered dose 224 ± 37 MBq, n = 4
Protocol: Data from 4 patients with 120 μg of coinjected WL12 were used for ^68Ga-NOTA-WL12 dosimetry analysis, and the heart contents, lungs, liver, spleen, pancreas, kidneys, uterus, urinary bladder contents, and body remainder were selected as source organs. The volumes of the source organs manually drawn on CT images were calculated, and their mean counts/mL (kBq/mL) were determined from PET images at 1 and 2 h time points. Dosimetry was estimated using OLINDA/EXM software (version 2.0; Hermes Medical Solutions AB). Detailed procedures are provided in the supplemental materials.

[9] = tested on: CHO-hPD-L1 tumors; assay: Small-animal PET of NOD/SCID mice bearing CHO-hPD-L1 tumors; conditions: 50 μg blocking dose coinjected
[10] = molecular target: T1, PD-L1 (CHO-hPD-L1 cells) (Homo sapiens, UniProt Q9NZQ7); assay: In vitro cellular uptake in CHO-hPD-L1 versus CHO cells; type: cell-based; conditions: CHO-hPD-L1 vs CHO cells
T1 construct: expressed in transfected cells
Description: The Chinese hamster ovary (CHO) cell line was obtained from American Type Culture Collection. A CHO cell line with constitutive PD-L1 expression (CHO-hPD-L1) was generated in our laboratory and described previously ([23]). Details of the cell culture, flow cytometry analysis for PD-L1 expression, and in vitro assays are provided in the supplemental materials.

[11] = 0, 5, 60, 120 μg WL12 coadministered
[12] = 6 patients with 1- and 2-h imaging
[13] = tumor versus lung, total radioactivity

PD-L1, sequence (Q9NZQ7 19-290): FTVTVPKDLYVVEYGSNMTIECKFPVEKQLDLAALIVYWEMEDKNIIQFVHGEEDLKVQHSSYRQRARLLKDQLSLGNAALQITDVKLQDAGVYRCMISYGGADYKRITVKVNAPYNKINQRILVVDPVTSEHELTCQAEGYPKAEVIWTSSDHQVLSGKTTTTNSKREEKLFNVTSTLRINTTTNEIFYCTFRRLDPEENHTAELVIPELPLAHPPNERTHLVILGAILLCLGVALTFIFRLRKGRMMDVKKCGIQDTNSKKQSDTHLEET
T1 sequence (Q9NZQ7 19-290): as above

Compound: OC[C@H]1OC(O)[C@H]([18F])[C@@H](O)[C@@H]1O (stereo partly drawn) [^18F-FDG]
- radiation dose of conventional PET/CT [1]: 7.0–14 mSv
- uptake in tumors [2]: intense

Compound: CCCC[C@H]1C(=O)N(C)[C@@H](CCCC)C(=O)N[C@@H](CCCNC(=O)CN2CCN(CC(=O)O)CCN(CC(=O)O)CC2)C(=O)N[C@H](C(=O)NCC(N)=O)CSCC(=O)N[C@@H](Cc2ccc(O)cc2)C(=O)N(C)[C@@H](C)C(=O)N[C@@H](CC(N)=O)C(=O)N2CCC[C@H]2C(=O)N[C@@H](Cc2c[nH]cn2)C(=O)N[C@@H](CC(C)C)C(=O)N2C[C@H](O)C[C@H]2C(=O)N[C@@H](Cc2c[nH]c3ccccc23)C(=O)N[C@@H](CO)C(=O)N[C@@H](Cc2cn(C)c3ccccc23)C(=O)N1C [^68Ga-NOTA-WL12, metal not drawn]
- change of liver uptake with increasing coadministered precursor dose [3, 11]: decreased
- change of small intestine (SI) uptake with increasing coadministered precursor dose [3, 11]: increased
- change of spleen uptake with increasing coadministered precursor dose [3, 11]: gradual decrease
- kidney and BP uptake at 1 h versus mass of WL12 used ([3]; 0, 5, 60, 120 μg WL12 coadministered, 1 h): remained similar
- change of SI uptake from 1 to 2 h [3, 12]: significant increase
- change of liver uptake from 1 to 2 h [3, 12]: significant decrease
- organ uptake pattern (biodistribution) ([3]; NSCLC patients, PET/CT): mainly observed in the SI and liver
- route of clearance ([3]; NSCLC patients, from uptake in liver, SI and kidneys): primarily through the hepatobiliary system and secondarily through renal excretion
- SUV ([4]; blood pool, SUVmax of blood pool (BP), patient 3, before therapy): 1.78 SUV
- SUV ([4]; left adrenal metastasis, SUVmax of left adrenal metastasis, patient 9, PD-L1 TPS 80%): 5.47 SUV
- SUV ([4]; primary tumor in left lung, SUVmax of primary tumor in left lung, patient 3, PD-L1 TPS 8%): 1.84 SUV
- SUV ([4]; primary tumor, SUVmax of primary tumor, patient 9, PD-L1 TPS 80%): 4.87 SUV
- SUV ([4]; right sacral metastasis, SUVmax of right sacral metastasis, patient 3, PD-L1 TPS 8%): 0.8 SUV
- tissue to tissue ratio at 1 h [4, 13]: 4.45 ± 1.89
- tissue to tissue ratio at 2 h [4, 13]: 5.18 ± 2.27
- SUV ([4]; tumor, SUVmax of tumor before treatment, patient 1, PD-L1 TPS 8%): 2.21 SUV
- SUV ([4]; tumor, SUVmax of tumor before treatment, patient 6, PD-L1 TPS 30%): 3.05 SUV
- tissue to tissue ratio at 2 h ([5]; tumor-to-blood-pool uptake (T/BP)): 4.5 ± 0.2
- tissue to tissue ratio at 2 h ([5]; tumor-to-muscle uptake (T/M)): 19.1 ± 1.2
- tumor uptake in negative control CHO tumors [6]: minimal uptake
- changes in vital signs, laboratory studies, electrocardiograms ([7]; before injection, screening period and 2 d after PET/CT): No significant changes
- adverse or pharmacologic effects ([7]; nine PET/CT examinations, 1.9–3.7 MBq/kg i.v.): no adverse or clinically detectable pharmacologic effects
- Effective dose per patient [8]: 4.1 mSv
- tumor uptake with coinjected blocking dose (in vivo specificity) [9]: decreased
- cellular uptake in vitro [10]: PD-L1–specific uptake
